Test results reported in patent US20050153870A1, “Medicinal composition for diagnosis, prevention, or therapy of multiple risk factor syndrome” (priority 2002, published 2005).

Tests used:
[1] = test system: non-insulin dependent type II diabetes patients; experiment: Clinical test II; assay type: in vivo, human; conditions: for Fasting blood sugar: before medication 108.8 ± 15.10; for number of patients with fasting blood sugar level No change or increase / number of patients with reduction rate of fasting blood sugar level 20-10% / number of patients with reduction rate of fasting blood sugar level <10% / number of patients with reduction rate of fasting blood sugar level >20% / number of patients with total serum cholesterol No change or increase / number of patients with total serum cholesterol decreasing rate 20-10% / number of patients with total serum cholesterol decreasing rate <10% / number of patients with total serum cholesterol decreasing rate >20%: 12 weeks
Description: On the other hand, Clinical test II was performed in a group of 79 participants from non-insulin dependent diabetic patients.
79 non-insulin dependent type II diabetes patients whose blood sugar is well-controlled under dietary therapy (all were mongoloid Japanese) participated in Clinical test II. They were forbidden to use sulfonyl urea and biguanide agent which is a therapeutic agent for type II diabetes, and a fibrate series medicament, nicotinic acid, and probucol which is a serum fat decreasing agent; however use of an antihypertensive agent is not particularly prohibited. They participated on a voluntary basis after they signed informed consent for clinical test participation, which was proposed by a medical institution based on the Helsinki declaration. The participants consisted of 26 males and 53 females. An average age at the sign-up time was 58±9.9 years old (average value±standard deviation), ranging from 37 to 81 years old. The body weight of patients was divided by standard body weight obtained from the standard body-weight table issued by Meiji life Insurance Company. This index was 1.24±0.154 (average value±standard deviation) at the sign-up time, meaning that there are many obese persons. After 12 weeks, the body weight index decreased to 1.18±0.137(average value±standard deviation).
The number of patients having normal blood pressure was 58 (of them, 31 patients were taking an antihypertensive agent).

[2] = test system: Rabbit; experiment: Arteriosclerosis suppressing effect, rabbit on hyperfat feed; assay type: in vivo; conditions: 0.2 to 0.05% mixed to hyperfat feed
From the text: As to prevention/therapy of arteriosclerosis, a big difference is observed in effect between medicaments conceivably effective in improving arteriosclerosis, such as fibrate series medicament, thiazolidine series medicament, probucol, and statin series medicament and a compound of the present invention.

[3] = Normal blood sugar group FBS < 130 mg/dl, 12th week
[4] = body weight fluctuation: No change or increase (total 29)
[5] = body weight fluctuation: No change or increase (total 31)
[6] = body weight fluctuation: Reduction of 3 kg or less (total 24)
[7] = body weight fluctuation: Reduction of 3 kg or less (total 25)
[8] = body weight fluctuation: Reduction of 3 kg or more (total 13)
[9] = body weight fluctuation: Reduction of 3 kg or more (total 18)

COc1c(Cl)c(C)c(C=O)c(O)c1C/C=C(C)/C=C/[C@@]1(C)[C@H](C)CCC(=O)[C@@H]1C [4-O-methylascochlorin]
Fasting blood sugar ([1]; Normal blood sugar group FBS < 130 mg/dl, 8th week): 109.0 ± 17.34 mg/dL | Fasting blood sugar, change vs before medication [1, 3]: ns (n = 25) | Fasting blood sugar [1, 3]: 106.4 ± 17.80 mg/dL | Total serum cholesterol ([1]; Normal group <220 mg/dl, 4th week, before medication 188.9 ± 21.55): 177.9 ± 31.91 mg/dL | Total serum cholesterol, change vs before medication ([1]; Normal group <220 mg/dl, 4th week, ns. = No significant difference): ns. (n = 14) | Total serum cholesterol ([1]; Normal group <220 mg/dl, 8th week, before medication 188.9 ± 21.55): 176.0 ± 36.33 mg/dL | Total serum cholesterol, change vs before medication ([1]; Normal group <220 mg/dl, 8th week, ns. = No significant difference): ns. (n = 14) | Total serum cholesterol ([1]; Normal group <220 mg/dl, 12th week, before medication 188.9 ± 21.55): 181.2 ± 32.10 mg/dL | Total serum cholesterol, change vs before medication ([1]; Normal group <220 mg/dl, 12th week, ns. = No significant difference): ns. (n = 18) | Total serum cholesterol, change vs before medication ([1]; Super high cholesterol group >300 mg/dl, 4th week): −20.0% (n = 20) | Total serum cholesterol ([1]; Super high cholesterol group >300 mg/dl, 4th week, before medication 348.8 ± 56.36): 273.8 ± 29.38 mg/dL | Total serum cholesterol, change vs before medication ([1]; Super high cholesterol group >300 mg/dl, 8th week): −28.9% (n = 20) | Total serum cholesterol ([1]; Super high cholesterol group >300 mg/dl, 8th week, before medication 348.8 ± 56.36): 248.5 ± 36.01 mg/dL | Total serum cholesterol, change vs before medication ([1]; Super high cholesterol group >300 mg/dl, 12th week): −30.0% (n = 21) | Total serum cholesterol ([1]; Super high cholesterol group >300 mg/dl, 12th week, before medication 348.8 ± 56.36): 244.2 ± 36.59 mg/dL | Serum neutral fat ([1]; abnormal high value group, greater than 120 mg/dl): significantly decreased | body weight index (body weight divided by standard body weight) ([1]; after 12 weeks, at the sign-up time 1.24±0.154): 1.18±0.137 | number of patients with fasting blood sugar level No change or increase [1, 4]: 11 | number of patients with reduction rate of fasting blood sugar level 20-10% [1, 4]: 8 | number of patients with reduction rate of fasting blood sugar level <10% [1, 4]: 7 | number of patients with reduction rate of fasting blood sugar level >20% [1, 4]: 3 | number of patients with total serum cholesterol No change or increase [1, 5]: 11 | number of patients with total serum cholesterol decreasing rate 20-10% [1, 5]: 6 | number of patients with total serum cholesterol decreasing rate <10% [1, 5]: 5 | number of patients with total serum cholesterol decreasing rate >20% [1, 5]: 9 | number of patients with fasting blood sugar level No change or increase [1, 6]: 4 | number of patients with reduction rate of fasting blood sugar level 20-10% [1, 6]: 8 | number of patients with reduction rate of fasting blood sugar level <10% [1, 6]: 6 | number of patients with reduction rate of fasting blood sugar level >20% [1, 6]: 6 | number of patients with total serum cholesterol No change or increase [1, 7]: 4 | number of patients with total serum cholesterol decreasing rate 20-10% [1, 7]: 2 | number of patients with total serum cholesterol decreasing rate <10% [1, 7]: 1 | number of patients with total serum cholesterol decreasing rate >20% [1, 7]: 18 | number of patients with total serum cholesterol No change or increase [1, 8]: 1 | number of patients with total serum cholesterol decreasing rate 20-10% [1, 8]: 0 | number of patients with total serum cholesterol decreasing rate <10% [1, 8]: 1 | number of patients with total serum cholesterol decreasing rate >20% [1, 8]: 11 | number of patients with fasting blood sugar level No change or increase [1, 9]: 3 | number of patients with reduction rate of fasting blood sugar level 20-10% [1, 9]: 3 | number of patients with reduction rate of fasting blood sugar level <10% [1, 9]: 4 | number of patients with reduction rate of fasting blood sugar level >20% [1, 9]: 8 | Blood pressure, Diastolic period ([1]; borderline hypertensive patients (n = 14), 4th week, before medication 92 ± 3.0): 86 ± 2.4 mmHg | Blood pressure, Systolic period ([1]; borderline hypertensive patients (n = 14), 4th week, before medication 156 ± 5.4): 149 ± 3.8 mmHg | Blood pressure, Diastolic period ([1]; borderline hypertensive patients (n = 14), 8th week, before medication 92 ± 3.0): 86 ± 3.3 mmHg | Blood pressure, Systolic period ([1]; borderline hypertensive patients (n = 14), 8th week, before medication 156 ± 5.4): 147 ± 3.3 mmHg | Blood pressure, Diastolic period ([1]; borderline hypertensive patients (n = 14), 12th week, before medication 92 ± 3.0): 86 ± 4.1 mmHg | Blood pressure, Systolic period ([1]; borderline hypertensive patients (n = 14), 12th week, before medication 156 ± 5.4): 149 ± 5.5 mmHg | blood sugar decreasing effect ([1]; group having a fasting blood sugar level of greater than 130 mg/dl): has a significant blood sugar decreasing effect | Serum neutral fat, change vs before medication ([1]; group with serum neutral fat <120 mg/dl, 4th week): −9.3% (n = 6) | Serum neutral fat ([1]; group with serum neutral fat <120 mg/dl, 4th week, before medication 96.2 ± 12.57): 88.5 ± 32.93 mg/dL | Serum neutral fat, change vs before medication ([1]; group with serum neutral fat <120 mg/dl, 8th week): −15.7% (n = 7) | Serum neutral fat ([1]; group with serum neutral fat <120 mg/dl, 8th week, before medication 96.2 ± 12.57): 85.7 ± 24.64 mg/dL | Serum neutral fat, change vs before medication ([1]; group with serum neutral fat <120 mg/dl, 12th week): −5.2% (n = 8) | Serum neutral fat ([1]; group with serum neutral fat <120 mg/dl, 12th week, before medication 96.2 ± 12.57): 90.3 ± 22.32 mg/dL | Serum neutral fat, change vs before medication ([1]; group with serum neutral fat >120 mg/dl, 4th week): −15.5% (n = 56) | Serum neutral fat ([1]; group with serum neutral fat >120 mg/dl, 4th week, before medication 215.7 ± 83.96): 182.6 ± 68.26 mg/dL | Serum neutral fat, change vs before medication ([1]; group with serum neutral fat >120 mg/dl, 8th week): −23.2% (n = 52) | Serum neutral fat ([1]; group with serum neutral fat >120 mg/dl, 8th week, before medication 215.7 ± 83.96): 172.7 ± 62.84 mg/dL | Serum neutral fat, change vs before medication ([1]; group with serum neutral fat >120 mg/dl, 12th week): −25.4% (n = 61) | Serum neutral fat ([1]; group with serum neutral fat >120 mg/dl, 12th week, before medication 215.7 ± 83.96): 167.8 ± 72.93 mg/dL | decrease of systolic pressure ([1]; hypertension group, 4 weeks after medication, text: no significant difference): 10 mmHg | Blood pressure, Diastolic period ([1]; hypertensive patients (n = 7), 4th week, before medication 97 ± 3.0): 91 ± 3.0 mmHg | Blood pressure, Systolic period ([1]; hypertensive patients (n = 7), 4th week, before medication 175 ± 10.4): 165 ± 15.6 mmHg | Blood pressure, Diastolic period ([1]; hypertensive patients (n = 7), 8th week, before medication 97 ± 3.0): 90 ± 5.1 mmHg | Blood pressure, Systolic period ([1]; hypertensive patients (n = 7), 8th week, before medication 175 ± 10.4): 161 ± 13.9 mmHg | Blood pressure, Diastolic period ([1]; hypertensive patients (n = 7), 12th week, before medication 97 ± 3.0): 89 ± 4.0 mmHg | Blood pressure, Systolic period ([1]; hypertensive patients (n = 7), 12th week, before medication 175 ± 10.4): 158 ± 15.7 mmHg | blood sugar decreasing effect ([1]; normal blood sugar group, fasting blood sugar level of 130 mg/dl or less): does not have a blood sugar decreasing effect | concentration of serum cholesterol ([1]; normal group, serum total cholesterol 220 mg/dl or less): did not change the concentration of serum cholesterol significantly | Serum neutral fat ([1]; normal value group, 120 mg/dl or less): only a tendency to decrease | antihypertensive effect ([1]; patients of type II diabetes complicated with borderline hypertensive): highly significant antihypertensive effect | total cholesterol values ([1]; super high value group and high value group): further significantly decreased | death from circulatory failure [2]: infarction derived from arteriosclerosis of the arteria coronaria and suppressing death
